In patent US5846538A, “Immune reactivity to HER-2/neu protein for diagnosis and treatment of malignancies in which the her-2/neu oncogene is associated” (University of Washington, priority 1995, dated 1998):

Tests used:
[1] = tested on: peripheral blood mononuclear cells (PBMC); test: standard proliferation assay of PBMC (3H-thymidine), CD4+ T cell response; format: cell-based, human
HLA-A2.1 = molecular target: T1, HLA-A2.1 (Homo sapiens, UniProt P04439, D140Y/D185E/D98H/E176V/E277Q/G131W/G231S/I119V/I121R/I166T/I218V/L300P/L318F/N151K/N90K/P208A/P217A/Q86G/Q94H/R138H/R169H/T345S); test: class I MHC molecule stabilization assay on T2 cells; format: cell-based; settings: T2 cells incubated 18 hours with peptide, vs medium alone
T1 construct: T2 without exogenous peptide has low expression of HLA-A2 (30%-50%); endogenous in cells; host or cells: T2 (human T-B cell hybrid)

PBL = test: low frequency event screening assay for CD4+ T cell precursors in PBL of normal individuals; format: cell-based, human
rat sera = test: ELISA for peptide epitope analysis of sera of immunized rats; format: in vivo; settings: sera from rats immunized with ECD peptides
Protocol: One group of rats was immunized with a mixture of extracellular domain (ECD) peptides and one group with a mixture of intracellular domain (ICD) peptides. The final group received adjuvant alone. Peptides were administered at a final concentration of 100 μg each in a total volume of 200 μl. The animals underwent 3 immunizations each 14-16 days apart with either CFA or IFA as adjuvant (Sigma ImmunoChemicals, St. Louis, Mo.). 16 days after the third immunization sera was obtained for assessment of immune response.
96 well Immulon 4 plates (Dynatech Laboratories) were incubated overnight at 4° C. with peptides at a concentration of 10 μg/well diluted in PBS alternating with rows of PBS/1%BSA. After incubation, all wells were blocked with PBS/1%BSA, 100 μl/well for 4 hours at room temperature. The plate was washed with PBS/0.5% Tween. After washing, the plate was incubated with rat sera at the following dilutions: 1:50 and 1:100. The sera was diluted in PBS/1%BSA/1% FBS/25 μg/ml mouse IgG/0.01% NaN3 and then serially into PBS/1%BSA. […] Color reaction was read at an optical density of 640 nm until the reading on the most reactive well reached 0.3 OD. The reaction was stopped with 1N HCl and the optical density was read at 450 nm. The OD of each serum dilution was calculated as the OD of the peptide coated wells minus the OD of the PBS/1%BSA coated wells. […]

[2] = breast cancer patient A, HER-2/neu status Negative, tetanus toxoid 5 μg/ml, p185 5 μg/ml, peptides 50 μg/ml, 4 days
[3] = breast cancer patient B, HER-2/neu status Positive, tetanus toxoid 5 μg/ml, p185 5 μg/ml, peptides 50 μg/ml, 4 days
[4] = breast cancer patient C, HER-2/neu status Positive, tetanus toxoid 5 μg/ml, p185 5 μg/ml, peptides 50 μg/ml, 4 days
[5] = breast cancer patient D, HER-2/neu status Positive, tetanus toxoid 5 μg/ml, p185 5 μg/ml, peptides 50 μg/ml, 4 days

Row | Compound | Stimulation Index (S.I.) [1, 2] | Stimulation Index (S.I.) [1, 3] | Stimulation Index (S.I.) [1, 4] | Stimulation Index (S.I.) [1, 5] | Stimulation Index (S.I.) ([1]; normal individual 1) | Stimulation Index (S.I.) ([1]; normal individual 2) | Stimulation Index (S.I.) ([1]; normal individual 3) | Stimulation Index (S.I.) ([1]; normal individual 4) | Stimulation Index (S.I.) ([1]; normal individual 5) | % Increase of class I stabilization on T2 (HLA-A2.1) [%] | CD4+ T cell response in low frequency screening (PBL; one normal individual (FIG. 2)) | individuals with a proliferative response (PBL; seven normal subjects (4 males, 3 females)) [%] | antibody responses to individual peptides (rat sera)
1 | Tetanus Toxoid [reference compound] | 52 | 36 | 7 | 10 | 6 | 7 | 7 | 10 | 11 | – | – | – | –
2 | CC(C)C[C@H](NC(=O)[C@@H](N)Cc1c[nH]cn1)C(=O)N[C@@H](Cc1ccc(O)cc1)C(=O)N[C@@H](CCC(N)=O)C(=O)NCC(=O)N[C@@H](CS)C(=O)N[C@@H](CCC(N)=O)C(=O)N[C@H](C(=O)N[C@H](C(=O)O)C(C)C)C(C)C [p48-56] | – | – | – | – | – | – | – | – | – | 20 | – | – | –
3 | p185: protein product of the HER-2/neu oncogene, partially purified whole protein from SKBR3 cell membranes | 13 | < 2 | 4 | 4 | 2 | < 2 | < 2 | 2 | 2 | – | Positive responses | 57 | –
4 | TQRCEKCSKPCARVCYGL [p328-345] | – | – | – | – | – | – | – | – | – | – | – | – | substantial responses
5 | CC(C)C[C@H](NC(=O)[C@H](CCC(N)=O)NC(=O)[C@@H](NC(=O)[C@@H](NC(=O)[C@H](CO)NC(=O)[C@@H](NC(=O)[C@H](CC(C)C)NC(=O)[C@@H](N)CS)[C@@H](C)O)[C@@H](C)O)C(C)C)C(=O)N[C@H](C(=O)O)C(C)C [p789-797] | – | – | – | – | – | – | – | – | – | 20 | – | – | –
